According to patent US6573060B1, “Methods and compositions for targeting DNA metabolic processes using aminoglycoside derivatives” (University of Virginia Patent Foundation, priority 1997, dated 2003):

Columns and labels:
PC3 cell line = test: MTS cell survival assay, PC3 prostate cancer cells; type: cell-based, human; conditions: FIG. 8, day five
Experimental: The effect of phosphoaminoglycosides on tumor cell growth was tested in cell culture inhibition studies. 5000 cells were plated in a total volume of 50 μl in a 96 well titer plate. After 24 hours, 50 μl of media and drugs, to the required final concentration, were added. The plates were incubated at 37° C. for 5 days. On the 5th day, the fraction of surviving cells was estimated using a non-radioactive cell proliferation assay (CellTiter 96 AQueous Cell Proliferation Assay from Promega).
This is a colorimetric assay that determines the number of viable cells. The assay measures the bioreduction of a tetrazolium compound (3-(4,5-dimethylthiazol-2-yl)-5-(3-carboxymethoxyphenyl)-2-(4-sulfophenyl)-2H-tetrazolium, inner salt; MTS), via an electron coupling reagent (phenazine methosulfate; PMS), to formazan, which is soluble in the tissue culture medium. The absorbance of formazan at 490 nm can be measured from the 96 well assay plate without additional processing. The conversion of MTS into the aqueous soluble formazan is accomplished by dehydrogenase enzymes found in metabolically active cells. The quantity of formazan product as measured by the amount of 490 nm absorbance is directly proportional to the number of living cells in culture. 100 μl of the PMS reagent (Promega) was mixed with 2.0 ml of MTS solution (Promega). 20 μl of PMS/MTS solution was added to the cells and the plates were incubated at 37° C. for 2 hours before measuring the absorbance at 490 nm.
In an initial experiment, four drugs (A-kanamycin, B-phosphokanamycin, C-neomycin, and D-phosphoneomycin) were added to prostate cancer cell cultures in a blind fashion. Two prostate cancer cell lines were incubated with each of the drugs and assayed for cell survivability using the MTS assay (Promega).
5000 cells were grown overnight in media and each respective drug (A-kanamycin, B-phosphokanamycin, C-neomycin, and D-phosphoneomycin) was added on the second day. […] Each point is the average of readings from three wells.

DNA-dependent ATPase A = biological target: T1, DNA-dependent ATPase A (Bos taurus, UniProt Q9TTA5); test: Inhibition of ATP hydrolysis by DNA-dependent ATPase A (overexpressed 82 kDa ADAAD); type: biochemical, bovine; conditions: for inhibition of DNA-dependent ATPase A activity (in words): in vitro
T1 sequence (Q9TTA5 222-940): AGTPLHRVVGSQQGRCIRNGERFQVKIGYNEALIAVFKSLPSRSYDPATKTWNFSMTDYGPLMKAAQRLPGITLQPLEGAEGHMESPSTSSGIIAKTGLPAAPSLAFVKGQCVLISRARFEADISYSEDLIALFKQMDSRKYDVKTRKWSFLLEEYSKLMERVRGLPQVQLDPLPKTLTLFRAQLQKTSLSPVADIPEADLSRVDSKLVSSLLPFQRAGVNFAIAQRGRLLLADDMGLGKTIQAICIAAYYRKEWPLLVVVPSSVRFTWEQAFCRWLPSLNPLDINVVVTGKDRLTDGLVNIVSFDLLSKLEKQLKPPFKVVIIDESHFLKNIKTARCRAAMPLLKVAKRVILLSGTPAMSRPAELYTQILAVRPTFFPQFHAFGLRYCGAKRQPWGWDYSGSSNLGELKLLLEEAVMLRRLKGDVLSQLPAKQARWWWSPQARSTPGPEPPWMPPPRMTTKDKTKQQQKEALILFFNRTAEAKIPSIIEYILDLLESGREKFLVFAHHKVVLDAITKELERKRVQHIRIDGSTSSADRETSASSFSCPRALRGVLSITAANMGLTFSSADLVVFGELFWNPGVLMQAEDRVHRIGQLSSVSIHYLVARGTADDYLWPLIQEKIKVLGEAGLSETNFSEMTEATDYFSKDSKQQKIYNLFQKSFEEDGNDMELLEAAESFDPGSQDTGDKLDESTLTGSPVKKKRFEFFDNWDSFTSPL
Experimental: Enzyme (0.2 units (one unit is the amount of enzyme required to hydrolyze 1 μmole of adenosine triphosphate per min)) was mixed with 50 mM Tris-SO4, pH 7.5, 1 mM MgCl2, 5 mM β-mercaptoethanol, 0.5 mg/mL bovine serum albumin, 2 mM phosphoenol pyruvate, 0.03 mg/mL pyruvate kinase, 10 nM of stem-loop DNA, and 2 mM adenosine triphosphate in a total volume of 100 μL. The reaction was typically incubated at 37° C. for 10-60 minutes. At the end of the designated time, 225 μL of 10% sodium dodecyl sulfate and 350 μL of water were added to stop the reaction. Color development requires the addition of two reagents: 180 μL of reagent A (prepared by mixing equal volumes of 60 to 70% perchloric acid and 5% ammonium molybdate in water) and 45 μL of reagent B (0.2 g 1:2:4 aminonaphthol sulfonic acid, 12.0 g sodium metabisulfite, and 2.4 g sodium sulfite dissolved in 100 mL of water) was added. The reaction was incubated at room temperature for 10 minutes and the absorbance was read at 720 nm. The color development was time-dependent and therefore samples must be read at exactly 10 minutes.
Enzyme (0.2 units (one unit is the amount of enzyme required to hydrolyze 1 μmole of adenosine triphosphate per min)) was mixed with 25 mM Tris-acetate pH 7.5, 6 mM Mg(acetate)2, 60 mM KCl, 5 mM β-mercaptoethanol, 3 mM phosphoenol pyruvate, 10 units/mL pyruvate kinase, 10 units/mL lactate dehydrogenase 10 nM DNA, 2 mM adenosine triphosphate, and 0.1 mg/mL NADH in a final volume of 1 mL. The progress of the reaction at 37° C. was monitored at 340 nm using an HP8452 spectrophotometer.
Enzyme (0.2 U) was mixed with 50 mM Tris-SO4, pH 7.5, 1 mM MgCl2, 5 mM β-mercaptoethanol, 0.5 mg/mL bovine serum albumin, 2 mM phosphoenol pyruvate, 0.03 mg/mL pyruvate kinase, 10 nM of stem-loop DNA, and 2 mM adenosine triphosphate in a total volume of 50 μL. Three (3) μCi of [^32P]-γ-adenosine triphosphate was added to the reaction and typical incubation was for 60 minutes 37° C. EDTA (25 mM) was added to stop the reaction. 10 μL of the reaction was spotted on a poly(ethylenimine)-cellulose plate. The plate was developed using 0.9M LiCl and 7M urea as solvent system. The plate was allowed to dry and autoradiographed either using X-OMAT film or a phosphorimager. […]

NC[C@H]1O[C@H](O[C@H]2[C@H](O)[C@@H](O[C@H]3O[C@H](CO)[C@@H](O)[C@H](N)[C@H]3O)[C@H](N)C[C@@H]2N)[C@H](O)[C@@H](OP(=O)(O)O)[C@@H]1O [phosphokanamycin, 3′-phosphokanamycin]
effect on PC3 cells (in words) (PC3 cell line): effective in killing the PC3 cells | Ki (DNA-dependent ATPase A; Table 4, determined in the presence of effector): 0.58 µM | Ki (DNA-dependent ATPase A; kinetic analysis of ATP hydrolysis, competitive with respect to DNA): ~0.2 µM | inhibition of DNA-dependent ATPase A activity (in words) (DNA-dependent ATPase A): inhibitor | inhibition of DNA-dependent ATPase A activity (in words) (DNA-dependent ATPase A; listed as 3′-phosphokanamycin): potent competitive (with respect to DNA) inhibitor | decrease in amount of drug required for a given level of inhibition / potency relative to the parent aminoglycoside (DNA-dependent ATPase A; phosphorylated derivative vs parent): 1000 fold
